Reference: patent publication US20260273020A1, “OBESTATIN FOR USE AS ANTINEOPLASTIC AGENT IN THE TREATMENT OF PANCREATIC CANCER” (SERVIZO GALEGO DE SAÚDE, priority 2023, published 2026)

Experiments:
Type in all cases: in vivo, C57BL/6J mice
[1] = system: pERK1/2(T202/Y204), ERK1/2, pAkt(S473), Akt; assay: Immunoblot of tumoral pancreatic tissue: ERK1/2 and Akt
Procedure: FIG. 4. (A) Analysis and quantification of Ki67 positive proliferative cells by immunohistochemistry in the pancreatic tumors of C57BL/6J mice (n=4) orthotopically injected with KPC FC1242 cells and treated with vehicle [NaCl, 0.9% (w/v)] or obestatin (500 nmol/Kg/72 h). Magnification: 4×. (B) Immunoblot analysis of pERK1/2(T202/Y204), ERK1/2, pAkt(S473), and Akt in tumoral pancreatic tissue. Results are expressed as fold of control of the non-treated injected mice [control; mean±SE (*, P<0.05)].
(§1) Mice were weighed at set times over the 15-day period. The sterilized surgical material was used for the tissue extraction. Pancreases and muscles were carefully removed from each animal minimizing contamination with surrounding tissue or mouse hair. Pancreases and muscles were weighed. The skeletal muscles selected were: tibialis anterior, TA; extensor digitorum longus, EDL; gastrocnemius, GAST; soleus, SOL; and diaphragm, DIA. Pancreases were also measured with a scale (cm) and pictures were taken. • Histology—Pancreas samples for histology were fixed in 4% paraformaldehyde in PBS at room temperature overnight. After fixation, samples were dehydrated and embedded in paraffin blocks. For this study, 3-micron sections were cut from each block and placed on pre-cleaned slides (Thermo Fisher Scientific, Waltham, MA, USA). […] The lysates were clarified by centrifugation (18,000×g, 15 min, 4° C.), and the protein concentration was quantified by the Quantipro™ BCA assay kit (Sigma-Aldrich, St. Louis, MO, US).
Tissues were disrupted and homogenized in ice-cold lysis buffer [50 mM Tris-HCl pH 7.2, 150 mM NaCl, 1 mM EDTA, 1% (v/v) NP-40, 0.25% (w/v) Na-deoxycholate, protease inhibitor cocktail (PIC; 1:100; Sigma Chemical Co., St. Luis, MO, US), phosphatase inhibitor cocktail (PHIC; 1:100; Sigma Chemical Co., St. Luis, MO, US)] with 5 mm stainless steel beads using a TissueLyser (Qiagen, Hilden, DE) at 30 Hz for 3 min. […] Supernatants were recovered and the protein was quantified with BCA Protein Assay Kit (Thermo Fisher Scientific, Rockford, IL, US). […]

[2] = system: p62, LC3, cleaved caspase 3, Bax, HIF1a; assay: Immunoblot of pancreatic tumors: apoptosis, autophagy, HIF1a; conditions: obestatin 500 nmol/Kg/72 h
Procedure: (§2) FIG. 5. Immunoblot analysis of p62, LC3, cleaved caspase 3, Bax, and HIF1a in the pancreatic tumors of C57BL/6J mice (n=4) orthotopically injected with KPC FC1242 cells and treated with vehicle [NaCl, 0.9% (w/v)] or obestatin (500 nmol/Kg/72 h). Results are expressed as fold of control of the non-treated injected mice [control; mean±SE (*, P<0.05)].
(§3) Mice were weighed at set times over the 15-day period. The sterilized surgical material was used for the tissue extraction. Pancreases and muscles were carefully removed from each animal minimizing contamination with surrounding tissue or mouse hair. Pancreases and muscles were weighed. The skeletal muscles selected were: tibialis anterior, TA; extensor digitorum longus, EDL; gastrocnemius, GAST; soleus, SOL; and diaphragm, DIA. Pancreases were also measured with a scale (cm) and pictures were taken. • Histology—Pancreas samples for histology were fixed in 4% paraformaldehyde in PBS at room temperature overnight. After fixation, samples were dehydrated and embedded in paraffin blocks. For this study, 3-micron sections were cut from each block and placed on pre-cleaned slides (Thermo Fisher Scientific, Waltham, MA, USA). The sectioned tissue slides were covered with a thin layer of paraffin, stoked at 60° C. for 1 hour and stored protected from light at room temperature to preserve the antigenicity of sections. • Immunoblot—For immunoblot analysis, pancreases were immediately frozen in dry ice and stored at −80° C. until use. Tissues were homogenized using a TissueLyser II tissue homogenizer (Qiagen, Hilden, DE), in 200 μL of RIPA lysis buffer at 30 Hz for 3 min. The lysates were clarified by centrifugation (18,000×g, 15 min, 4° C.), and the protein concentration was quantified by the Quantipro™ BCA assay kit (Sigma-Aldrich, St. Louis, MO, US).
(§4) Tissues were disrupted and homogenized in ice-cold lysis buffer [50 mM Tris-HCl pH 7.2, 150 mM NaCl, 1 mM EDTA, 1% (v/v) NP-40, 0.25% (w/v) Na-deoxycholate, protease inhibitor cocktail (PIC; 1:100; Sigma Chemical Co., St. Luis, MO, US), phosphatase inhibitor cocktail (PHIC; 1:100; Sigma Chemical Co., St. Luis, MO, US)] with 5 mm stainless steel beads using a TissueLyser (Qiagen, Hilden, DE) at 30 Hz for 3 min. The soluble cell lysates were pre-cleared by centrifuging at 14,000 rpm for 15 min. Supernatants were recovered and the protein was quantified with BCA Protein Assay Kit (Thermo Fisher Scientific, Rockford, IL, US). The same amount of protein for each sample was separated on 7-15% SDS/polyacrylamide gels and transferred to nitrocellulose membranes (Bio-Rad, Hercules, CA, US). The blots were incubated with 5% bovine serum albumin (BSA) in a Tris buffer solution (TBS) containing Tween-20 [TBST; 20 mM Tris-HCl (pH 8.0), 150 mM NaCl, 0.1% (v/v) Tween-20, solution used for all incubation and washing steps] for 1 h. The blots were then incubated with the corresponding primary antibodies and subsequently were incubated with the corresponding peroxidase-conjugated IgG antibody (Table 1). After washing, the signals were visualized using an ECL plus Western Blotting Detection System (Pierce ECL Western Blotting Substrate; Thermo Fisher Scientific, Pierce, Rockford, IL, US). The image processing was performed using the NIH Image Software ImageJ 1.53o (National Institutes of Health, Bethesda, MD, US).

[3] = system: aSMA, HSP47, vimentin, collagen I, fibronectin, ADRP; assay: Immunoblot of pancreatic tumors: fibrosis and CAF markers; conditions: obestatin 500 nmol/Kg/72 h
Procedure: as §2, with “6.” for “5.”, “aSMA, vimentin, collagen I, fibronectin,” for “p62, LC3, cleaved caspase 3, Bax,”, “ADPR” for “HIF1a”
as §3, §4

[4] = system: pNF-kB p65(S536), pSTAT3(S727); assay: Immunoblot of pancreatic tumors: NF-kB and STAT3; conditions: obestatin 500 nmol/Kg/72 h
Procedure: as §2, with “8.” for “5.”, “pNF-kB p65(S536), NF-kB p65, pSTAT3(Y705), pSTAT3(S727),” for “p62, LC3, cleaved caspase 3, Bax,”, “STAT3” for “HIF1a”
as §1, with “US). […]” for “US).”

[5] = obestatin 500 nmol/Kg/72 h, referenced to non-treated animals

Substance: obestatin
- total expressions of ERK and AKT ([1]; Western blotting): unchanged
- Akt activation augmented, pAkt(S473) [1, 5]: 369.5±100.1%
- reduction in ERK1/2 activation, pERK1/2(T202/Y204) [1, 5]: ~50%
- increased expression of HIF1a ([2]; compared to control or vehicle-treated animals): 106.6±17.8%
- diminution in LC3-I ([2]; pancreatic tumors): 9.2±7.5%
- increase in cleaved caspase 3 ([2]; pancreatic tumors): 264.6±57.7%
- increase in levels of proapoptotic Bax ([2]; pancreatic tumors): 141.6±28.4%
- reduction in LC3-II levels ([2]; pancreatic tumors): 21.8±7.3%
- upregulation in p62 ([2]; pancreatic tumors): 75.7±20.8%
- adipophilin (ADRP) diminished [3]: 42.6±8.8%
- augment of vimentin [3]: 111.1±19.1%
- higher levels of HSP47 [3]: 49.5±17.7%
- increased expression of aSMA [3]: 53.7±7.3%
- inhibition of expression of collagen [3]: 60.1±2.9%
- inhibition of expression of fibronectin [3]: 57.0±7.1%
- downregulation of pNF-KB p65(S536) [4]: 43.6±9.0%
- downregulation of pSTAT3(S727) [4]: 52.3±12.4%
